Converted amounts (≈) assume the structure as drawn. Like-named read-outs stand apart in the source and are kept apart here. Some results are limits rather than exact numbers.

The test system of series [1] is isolated guinea pig seminal vescicle. The series is described as follows: adrenolytic activity in vitro: inhibition of the spasmogen effect caused by adrenaline. The conditions noted are these: Cavia porcellus, 50% inhibition of spasmogen effect caused by adrenaline. In kind it is cell-based. On the procedure: (§1) The compounds of the present invention have a high and prolonged adrenolytic activity and a low toxicity and are therefore useful in therapy. This adrenolytic activity was tested "in vitro" on isolated guinea pig seminal vescicle suspended in physiological solution and "in vivo" on the rat. Table 1 reports the values of concentrations, in γ/ml, which are able to produce a 50% inhibition (IC50) of the spasmogen effect caused by adrenaline and the doses in mg/Kg (ED50) able to reduce by 50% the lethal effects caused by adrenaline after oral (os) and intravenous (i.v.) administration of the compounds in question. Table 1 also reports the LD50 values, both per os and i.v. in rats.

Series [2] concerns lethal effects caused by adrenaline. Kind of series: adrenolytic activity in vivo: reduction of the lethal effects caused by adrenaline. Particulars: rat, 50% reduction of lethal effects caused by adrenaline. The protocol: as §1
A short description of another series: LD50 (acute toxicity). Particulars: rat, in vivo, rats. On the procedure:
as §1

The next series concerns hypertensive rat. The series is described as follows: hypotensive activity on the hypertensive rat. In kind it is in vivo. The conditions noted are these: po, per os, dose which causes a pressure drop of about 30-40 mmHg, read-out: Hypotensive Activity active dose. On the procedure: The hypotensive activity was tested on the hypertensive rat; the reported data being the dose expressed in mg/Kg per os, which causes a pressure drop of about 30-40 mmHg.

The nature of series [3]: analgesic activity, hot plate test. Particulars: for Analgesic Activity Hot Plate, relative to D-propoxyphene: D-propoxyphene = 1. The series is classed as in vivo. The protocol:
(§2) The analgesic activity was evaluated by means of the hot plate test and the writhing test, the data being given in comparison with morphine and D-propoxyphene.
(§3) In the hot plate and writhing tests, the comparison compounds morphine and D-propoxyphene have been arbitrarily assigned the value of 1.
Background: Thermal pain tests record how soon the animal reacts.

A short description of series [4]: analgesic activity, writhing test. In kind it is in vivo. The protocol:
as §2, §3
(In general: An intraperitoneal irritant provokes the stretching counted in writhing tests.)

[5] abbreviates: iv, i.v., read-out: Adrenolytic Activity "in vivo" ED50 i.v.
Setting [6] is: po, per os, read-out: Adrenolytic Activity "in vivo" ED50 os.
Where [7] appears, read: morphine = 1, listed as 1,6-dimethyl-8β-[5-amino-2-pyrimidino-aminoethyl]-10α-ergoline.

Compound `Cc1cnc(NCC[C@@H]2C[C@@H]3c4cccc5c4c(cn5C)C[C@H]3N(C)C2)nc1` [1,6-Dimethyl-8β-[5-methyl-2-pyrimidinoaminoethyl]-10α-ergoline] returned an IC50 in series [1] of 0.5 mg/L (≈ 1.33 µM). Also, the ED50 in series [2] (setting [5]) came to 0.07 mg/kg; in series [2] (setting [6]) it was 0.5 mg/kg. Besides, the LD50 in the series “LD50 (acute toxicity)” (iv, i.v., read-out: LD50 i.v.) amounted to 19 mg/kg; in the series “LD50 (acute toxicity)” (po, per os, read-out: LD50 os) it was 130 mg/kg.
Compound `CO[C@]12C[C@@H](CCNc3ncc([N+](=O)[O-])cn3)CN(C)[C@@H]1Cc1cn(C)c3cccc2c13` [1,6-Dimethyl-8β-[5-nitro-2-pyrimidinoaminoethyl]-10α-methoxyergoline] showed a half-inhibitory concentration (IC50) in series [1] of 0.5 mg/L (≈ 1.15 µM). The ED50 stood at 0.25 mg/kg in series [2] (setting [5]) and 0.42 mg/kg in series [2] (setting [6]). For the same compound, the LD50 in “LD50 (acute toxicity)” (po, per os, read-out: LD50 os) worked out at 150 mg/kg.
Turning to `CN1C[C@H](CCNc2ncccn2)C[C@@H]2c3cccc4c3c(cn4C)C[C@H]21` [1,6-dimethyl-8β-[2-pyrimidinoaminoethyl]-10α-ergoline], it took 0.001 mg/L (≈ 0.00277 µM) to reach half-maximal inhibition in series [1] (IC50). The ED50 was found to be 0.2 mg/kg in series [2] (setting [5]) and 0.1 mg/kg in series [2] (setting [6]). Besides, the LD50 in the series “LD50 (acute toxicity)” (iv, i.v., read-out: LD50 i.v.) stood at 18 mg/kg; in the series “LD50 (acute toxicity)” (po, per os, read-out: LD50 os) it was 100 mg/kg.
As to `CN1C[C@H](CCNc2ncc(N)cn2)C[C@@H]2c3cccc4c3c(cn4C)C[C@H]21` [1,6-dimethyl-8β-[5-amino-2-pyrimidinoaminoethyl]-10α-ergoline], the ED (30-40 mmHg pressure drop) with hypertensive rat worked out at 10 mg/kg. For the same compound, the “Analgesic Activity Hot Plate, relative to D-propoxyphene” value in series [3] came to 5. Also, the “Analgesic Activity Hot Plate, relative to morphine” value in series [3] (morphine = 1) is 1; in series [3] (setting [7]), “same activity as morphine”. Besides, in series [4] (D-propoxyphene = 1), the “Analgesic Activity Writhing, relative to D-propoxyphene” value amounted to 10. Also, the “Analgesic Activity Writhing, relative to morphine” value in series [4] (morphine = 1) was 1; in series [4] (setting [7]) it was “same activity as morphine”.
Take `CO[C@]12C[C@@H](CCNc3ncc(Br)cn3)CN(C)[C@@H]1Cc1cn(C)c3cccc2c13` [1,6-dimethyl-8β-[5-bromo-2-pyrimidinoaminoethyl]-10α-methoxyergoline]: in series [1], the IC50 was 0.01 mg/L (≈ 0.0213 µM). Further, the figures for the ED50 in series [2] (setting [5]) and in series [2] (setting [6]) were 0.65 mg/kg and > 1 mg/kg, respectively. The LD50 in “LD50 (acute toxicity)” (po, per os, read-out: LD50 os) stood at 200 mg/kg.
With `COc1cnc(NCC[C@@H]2C[C@@H]3c4cccc5c4c(cn5C)C[C@H]3N(C)C2)nc1` [1,6-dimethyl-8β-[5-methoxy-2-pyrimidinoaminoethyl]-10α-ergoline], in the series on hypertensive rat, the ED (30-40 mmHg pressure drop) is 10 mg/kg. The “Analgesic Activity Hot Plate, relative to D-propoxyphene” value in series [3] is recorded as 2. Besides, in series [3] (morphine = 1), the “Analgesic Activity Hot Plate, relative to morphine” value is recorded as 0.5.

Broadly, the IC50 is the concentration that gives 50% inhibition. As usually defined, the ED50 is the midpoint of the dose-response relation. The LD50 is the dose expected to kill half of the subjects tested.

These data come from patent US3996228A, “Pyrimidinoaminoethyl ergoline derivatives” (Societa' Farmaceutici Italia S.p.A., priority 1973, dated 1976).
